# Source: patent US8637263B1, “Assay for determination of compounds having anti-emetic activity” (Epiomed Therapeutics, Inc., priority 2010, dated 2014)
# Counter-ions that a name gives are not always drawn.
# Test system: xylazine-induced emesis
# Experiment: Xylazine-induced emesis in cats, with defensive behavior/anxiety scoring
# Type: in vivo
# Conditions: for anxiety 15 minutes after treatment / cats that vomited / protection against xylazine-induced emesis: FIG. 1, female cats; for cats that vomited / protection against xylazine-induced emesis: observed 30 min; for anxiety-inducing effect in test subjects / effectiveness in preventing chemically-induced emesis: administered alone, summary statement; for Defensive Behavior Scale / Mean Defensive Score / % Protection (vomiting) / Mean Latency (to retch/vomit): cats; for % Protection (vomiting) / Mean Latency (to retch/vomit): xylazine 0.66 mg/kg
# Protocol: […], 0.66 mg/kg xylazine was administered subcutaneously, and the test subjects where then observed for 30 minutes.
# Cats not susceptible to motion sickness were assigned to the xylazine testing group. Xylazine stimulates receptors on a pathway different from that used by motion sickness and thus served as a test of the generality of anti-emetic effects observed with motion testing.
# Prior to the evaluation of anti-emetic compounds, the production of an emetic response by xylazine in felines was confirmed in the laboratory. Cats were injected subcutaneously with either a freshly prepared solution of 0.66 mg/kg of xylazine in 0.9% sodium chloride or 0.9% sodium chloride vehicle, both adjusted to an injection volume of 0.1 ml/kg.
# One week following the confirmation of an emetic response by the cats, subject cats were given either vehicle or test compound/composition in 0.9% sodium chloride or vehicle (injection volume of 0.1 ml/kg) subcutaneously, 20 minutes before administration of xylazine. […] Animals were scored using the vomit scale developed by Suri et al., 1979. Additional experiments were separated by at least a 1 week washout period.
# A. Vomit Scale Scoring: • 1. Sal I (licking—parasympathetic): 1 pt • 2. Sal II (drool, thin/frothy—early sympathetic): 2 pts • 3. Sal III (stringy saliva, dangles—sympathetic): 4 pts • 4. Defection: 8 pts • 5. Urination: 8 pts • 6. Wretch/vomiting: 16 pts
# B. Defensive Behavior Scale: • 1. No defensiveness: normal behavior; • 2. Slight defensiveness: retreating to the rear of the cage when approached and/or growling when being carried; • 3. […] Strong defensiveness: vigorous clawing and biting to prevent being handled. IV. Statistical Methods
# Dose response curves were analyzed by Cochran's Q-test to establish significant effects. Paired comparisons were made using McNemar's test. Tests for line parallelism, relative potency and ED50 were based on least squares regression in a program for pharmacological statistics. The data from the nonparametric rating scale was analyzed using Friedman's analysis of variance model (ANOVA).
# [1] = 0.08 mg/kg SC 15 min before xylazine 0.66 mg/kg SC
compound,measurement,setting,value
"CCCN(CCC)[C@@H]1CCc2cccc(O)c2C1 [R-(+)-DPAT, R(+)-8-Hydroxy-2-(dipropylamino)tetralin hydrobromide]",anxiety 15 minutes after treatment,0.08 mg/kg SC,extreme level of anxiety
same,cats that vomited,[1],none of the cats vomited
same,anxiety-inducing effect in test subjects,,moderate to strong
same,effectiveness in preventing chemically-induced emesis,,100%
same,Defensive Behavior Scale,0.02 mg/kg SC,Moderate
same,Mean Defensive Score,0.02 mg/kg SC,2.0
same,% Protection (vomiting),0.02 mg/kg SC,100.00%
same,Defensive Behavior Scale,0.04 mg/kg SC,Strong
same,Mean Defensive Score,0.04 mg/kg SC,3.0
same,% Protection (vomiting),0.04 mg/kg SC,100.00%
same,Defensive Behavior Scale,0.08 mg/kg SC,Strong
same,Mean Defensive Score,0.08 mg/kg SC,3.0
same,% Protection (vomiting),0.08 mg/kg SC,100.00%
"CCCN(CCC)[C@H]1CCc2cccc(O)c2C1 [S-(−)-DPAT, S(−)-8-Hydroxy-2-(dipropylamino)tetralin hydrobromide]",anxiety 15 minutes after treatment,0.08 mg/kg SC,did not show any anxiety
same,cats that vomited,[1],40%
same,protection against xylazine-induced emesis,[1],60%
same,anxiety-inducing effect in test subjects,,no anxiety or only slight anxiety
same,effectiveness in preventing chemically-induced emesis,,not fully effective
same,Defensive Behavior Scale,0.08 mg/kg SC,None
same,% Protection (vomiting),0.08 mg/kg SC,75.00%
same,Mean Latency (to retch/vomit),0.08 mg/kg SC,1.58 min
same,Defensive Behavior Scale,0.16 mg/kg SC,None
same,% Protection (vomiting),0.16 mg/kg SC,85.71%
same,Mean Latency (to retch/vomit),0.16 mg/kg SC,0.82 min
same,Defensive Behavior Scale,0.32 mg/kg SC,Slight
same,Mean Defensive Score,0.32 mg/kg SC,1.0
same,% Protection (vomiting),0.32 mg/kg SC,80.00%
same,Mean Latency (to retch/vomit),0.32 mg/kg SC,1.00 min
"CCCN(CCC)C1CCc2cccc(O)c2C1 (racemic) [R/S-(+/−)-DPAT, (±)-8-Hydroxy-2-(dipropylamino)tetralin]",anxiety 15 minutes after treatment,0.16 mg/kg SC,moderate level of anxiety
same,protection against xylazine-induced emesis,0.16 mg/kg SC 15 min before xylazine 0.66 mg/kg SC,100%
same,Defensive Behavior Scale,0.16 mg/kg SC,Moderate
same,Mean Defensive Score,0.16 mg/kg SC,2.0
same,% Protection (vomiting),0.16 mg/kg SC,100.00%
